target: PDE10 (Homo sapiens, UniProt Q9Y233); assay: PDE10 assay with fluorescent substrate (IMAP, fluorescence polarization); assay type: biochemical; details: not given
Sequence (Q9Y233 whole entry, species assumed): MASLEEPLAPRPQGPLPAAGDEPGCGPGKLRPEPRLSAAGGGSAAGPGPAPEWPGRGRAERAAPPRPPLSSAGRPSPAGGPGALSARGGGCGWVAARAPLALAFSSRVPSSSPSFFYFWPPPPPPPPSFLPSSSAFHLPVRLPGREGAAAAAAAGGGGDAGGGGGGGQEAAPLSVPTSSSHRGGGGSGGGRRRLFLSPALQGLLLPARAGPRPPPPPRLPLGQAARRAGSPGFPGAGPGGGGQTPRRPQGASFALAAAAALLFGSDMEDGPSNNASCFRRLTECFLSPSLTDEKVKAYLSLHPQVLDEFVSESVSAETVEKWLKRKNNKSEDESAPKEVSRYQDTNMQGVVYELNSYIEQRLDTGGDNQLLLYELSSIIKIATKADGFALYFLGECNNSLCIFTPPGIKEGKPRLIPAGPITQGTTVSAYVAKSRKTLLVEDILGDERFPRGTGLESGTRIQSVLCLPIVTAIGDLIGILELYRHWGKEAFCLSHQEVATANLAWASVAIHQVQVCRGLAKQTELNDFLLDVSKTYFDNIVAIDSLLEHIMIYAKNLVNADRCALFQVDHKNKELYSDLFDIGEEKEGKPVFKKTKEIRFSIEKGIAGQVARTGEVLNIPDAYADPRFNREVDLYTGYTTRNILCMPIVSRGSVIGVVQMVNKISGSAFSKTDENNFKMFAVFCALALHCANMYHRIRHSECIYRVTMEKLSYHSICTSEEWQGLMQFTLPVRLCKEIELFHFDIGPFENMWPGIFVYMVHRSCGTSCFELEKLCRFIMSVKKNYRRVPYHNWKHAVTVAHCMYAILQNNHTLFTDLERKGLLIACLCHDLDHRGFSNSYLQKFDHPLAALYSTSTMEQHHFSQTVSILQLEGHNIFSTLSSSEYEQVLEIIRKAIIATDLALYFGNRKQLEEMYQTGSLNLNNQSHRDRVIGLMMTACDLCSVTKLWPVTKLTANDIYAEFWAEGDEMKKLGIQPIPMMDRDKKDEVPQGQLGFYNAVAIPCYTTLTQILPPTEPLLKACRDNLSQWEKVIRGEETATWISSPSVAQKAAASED

| Structure (SMILES) | IC50 [µM] |
| --- | --- |
| Cc1nc2ccc(C(C)C)nc2n2c(-c3cc(C(C)(C)O)ccc3Cl)nnc12 [Example 77] | 1.4 |
| Cc1ccc(C(C)(C)O)cc1-c1nnc2c(C)nc3ccc(C(C)C)nc3n12 [Example 78] | 2.85 |
| Cc1ccc(CC(C)(C)O)cc1-c1nnc2c(C)nc3ccc(C4CC4)nc3n12 [Example 81] | 5.38 |
| Cc1nc2cccnc2n2c(-c3cc(C4(O)CCC4)ccc3F)nnc12 [Example 86] | 5.75 |
| Cc1ccc2nc(C)c3nnc(-c4cc(C5(O)CCC5)ccc4F)n3c2n1 [Example 90] | 0.485 |
| Cc1nc2ccc(C(C)C)nc2n2c(-c3cc(C4(O)CCC4)ccc3Cl)nnc12 [Example 91] | 0.077 |
| Cc1nc2ccc(C(C)C)nc2n2c(-c3cc(C4(O)CCC4)ccc3F)nnc12 [Example 92] | 0.553 |
| Cc1nc2ccc(C3CC3)nc2n2c(-c3cc(C4(O)CCOCC4)ccc3Cl)nnc12 [Example 94] | 2.72 |
| Cc1nc2ccc(C3CC3)nc2n2c(-c3cc(C4(O)CCOCC4)ccc3F)nnc12 [Example 95] | 1.37 |
| Cc1nc2ccc(C3CC3)nc2n2c(-c3cc(C(C)(C)CO)ccc3F)nnc12 [Example 101] | 1.13 |
| Cc1ccc(C2(O)CCOCC2)cc1-c1nnc2c(C)nc3ccc(C4CC4)nc3n12 [Example 103] | 1.01 |

Now from value to compound:

| IC50 [µM] | Structure (SMILES) |
| --- | --- |
| 7.46 | Cc1nc2ccc(C(F)(F)F)nc2n2c(-c3cc(C4(O)CCOC4)ccc3F)nnc12 (stereo not drawn) [Example 96c] |
| 7980 | Cc1nc2ccc(C(F)(F)F)nc2n2c(-c3cc(C(C)(C)O)ccc3F)nnc12 [Example 103c] |

system: not listed separately; assay: Metabolic stability in pooled liver microsomes; assay type: in vitro ADME; details: human liver microsomes, 37° C., 1 mg/mL microsomal protein, test compound 1 μM, NADPH
Experimental: The metabolic stability of the compounds according to the invention has been investigated as follows:
The metabolic degradation of the test compound was assayed at 37° C. with pooled liver microsomes from various species. The final incubation volume of 100 μl per time point contains TRIS buffer pH 7.6 at room temperature (0.1 M), magnesium chloride (5 mM), microsomal protein (1 mg/mL for human and dog, 0.5 mg/mL for other species) and the test compound at a final concentration of 1 μM. Following a short preincubation period at 37° C., the reactions were initiated by addition of betanicotinamide adenine dinucleotide phosphate, reduced form (NADPH, 1 mM), and terminated by transferring an aliquot into solvent after different time points. […] The half-life was determined by the slope of the semi-logarithmic plot of the concentration-time profile.

| Structure (SMILES) | Half-life - t½ [h] |
| --- | --- |
| Cc1ccc(OC2COCC2O)cc1-c1nnc2c(C)nc3ccc(C4CC4)nc3n12 (racemic) [Example 57] | 2.17 |
| Cc1ccc(OC2COCC2O)cc1-c1nnc2c(C)nc3ccc(C4CC4)nc3n12 (single isomer, unassigned) [Example 57a] | 2.17 |
| Cc1nc2cccnc2n2c(-c3cc(OC[C@@H](C)O)ccc3Cl)nnc12 [Example 17] | 2.17 |
| Cc1ccc2nc(C)c3nnc(-c4cc(OCC(C)(C)O)ccc4Cl)n3c2n1 [Example 46] | 2.17 |
| Cc1ccc(OCC(C)(C)O)cc1-c1nnc2c(C)nc3ccc(C(C)C)nc3n12 [Example 51] | 2.17 |
| CCC(O)c1ccc(Cl)c(-c2nnc3c(C)nc4ccc(C)nc4n23)c1 (stereo not drawn) [Example 62] | 2.17 |
| Cc1ccc2nc(C)c3nnc(-c4cc(C(C)(C)O)ccc4Cl)n3c2n1 [Example 71] | 2.17 |
| Cc1nc2ccc(C3(C)CC3)nc2n2c(-c3cc(C(C)(C)O)ccc3F)nnc12 [Example 72] | 2.17 |
| Cc1ccc(C2(O)CCC2)cc1-c1nnc2c(C)nc3cccnc3n12 [Example 73] | 2.17 |

Other lines, results leading:

| Half-life - t½ [h] | Structure (SMILES) |
| --- | --- |
| 2.17 | Cc1nc2ccc(C3CC3)nc2n2c(-c3cc(OC4COCC4O)ccc3Cl)nnc12 (racemic) [Example 58a] |
| 2.17 | Cc1nc2ccc(C3CC3)nc2n2c(-c3cc(OC4COCC4O)ccc3Cl)nnc12 (single isomer, unassigned) [Example 58b] |
| 2.17 | Cc1nc2ccc(C3CC3)nc2n2c(-c3cc(OC4COCC4O)ccc3Cl)nnc12 (single isomer, unassigned) [Example 58c] |

target: PDE2A (Homo sapiens, UniProt O00408); assay: PDE 2A assay with fluorescent substrate (IMAP, fluorescence polarization); assay type: biochemical; details: read-out: PDE2 IC50
Sequence (O00408 whole entry, species assumed): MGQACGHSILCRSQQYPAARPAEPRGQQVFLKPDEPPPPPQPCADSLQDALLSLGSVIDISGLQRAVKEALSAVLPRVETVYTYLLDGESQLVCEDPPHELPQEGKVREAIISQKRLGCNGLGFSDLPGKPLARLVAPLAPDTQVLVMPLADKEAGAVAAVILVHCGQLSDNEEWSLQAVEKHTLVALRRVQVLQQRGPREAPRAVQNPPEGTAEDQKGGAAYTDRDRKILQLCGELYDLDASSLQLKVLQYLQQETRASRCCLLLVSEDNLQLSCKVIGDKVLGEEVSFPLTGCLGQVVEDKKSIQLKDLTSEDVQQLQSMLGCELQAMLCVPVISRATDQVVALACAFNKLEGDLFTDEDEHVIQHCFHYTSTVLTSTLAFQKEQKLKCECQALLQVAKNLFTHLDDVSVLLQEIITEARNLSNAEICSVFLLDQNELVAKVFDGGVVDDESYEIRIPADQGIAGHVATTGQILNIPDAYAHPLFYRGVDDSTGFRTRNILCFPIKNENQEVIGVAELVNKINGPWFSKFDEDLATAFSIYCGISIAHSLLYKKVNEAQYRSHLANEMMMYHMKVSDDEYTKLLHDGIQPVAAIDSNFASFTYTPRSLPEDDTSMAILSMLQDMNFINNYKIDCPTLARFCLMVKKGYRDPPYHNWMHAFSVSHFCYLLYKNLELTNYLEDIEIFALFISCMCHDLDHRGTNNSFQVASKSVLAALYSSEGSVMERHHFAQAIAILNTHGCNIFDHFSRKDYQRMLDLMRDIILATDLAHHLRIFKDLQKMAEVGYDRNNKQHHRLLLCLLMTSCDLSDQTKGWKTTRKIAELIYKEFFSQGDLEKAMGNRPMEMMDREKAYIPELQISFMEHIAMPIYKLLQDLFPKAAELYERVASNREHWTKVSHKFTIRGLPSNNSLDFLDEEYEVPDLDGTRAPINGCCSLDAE

| Structure (SMILES) | IC50 [µM] |
| --- | --- |
| Cc1nc2ccc(C3CC3)nc2n2c(-c3cc(C4(O)CCOC4)ccc3Cl)nnc12 (racemic) [Example 97] | 0.004 |
| Cc1ccc2nc(C)c3nnc(-c4cc(OCC(C)(C)O)ccc4Cl)n3c2n1 [Example 46] | 0.05 |
| Cc1ccc(OCC(C)(C)O)cc1-c1nnc2c(C)nc3ccc(C(C)C)nc3n12 [Example 51] | 0.009 |
| CCC(O)c1ccc(Cl)c(-c2nnc3c(C)nc4ccc(C)nc4n23)c1 (stereo not drawn) [Example 62] | 0.011 |
| Cc1ccc2nc(C)c3nnc(-c4cc(C(C)(C)O)ccc4Cl)n3c2n1 [Example 71] | 0.109 |
| Cc1nc2ccc(C3(C)CC3)nc2n2c(-c3cc(C(C)(C)O)ccc3F)nnc12 [Example 72] | 0.032 |
| Cc1ccc(C2(O)CCC2)cc1-c1nnc2c(C)nc3cccnc3n12 [Example 73] | 0.189 |
| Cc1ccc(C(C)(C)O)cc1-c1nnc2c(C)nc3ccc(C(C)C)nc3n12 [Example 78] | 0.01 |
| Cc1ccc(C(C)(C)O)cc1-c1nnc2c(C)nc3cc(C(C)C)cnc3n12 [Example 79] | 0.144 |
| Cc1ccc(CC(C)(C)O)cc1-c1nnc2c(C)nc3ccc(C4CC4)nc3n12 [Example 81] | 0.007 |
| Cc1nc2cccnc2n2c(-c3cc(C4(O)CCC4)ccc3F)nnc12 [Example 86] | 0.434 |
| Cc1ccc2nc(C)c3nnc(-c4cc(C5(O)CCC5)ccc4F)n3c2n1 [Example 90] | 0.103 |
| Cc1nc2ccc(C(C)C)nc2n2c(-c3cc(C4(O)CCC4)ccc3Cl)nnc12 [Example 91] | 0.001 |
| Cc1nc2ccc(C(C)C)nc2n2c(-c3cc(C4(O)CCC4)ccc3F)nnc12 [Example 92] | 0.002 |
| Cc1nc2ccc(C3CC3)nc2n2c(-c3cc(C4(O)CCOCC4)ccc3Cl)nnc12 [Example 94] | 0.001 |
| Cc1nc2ccc(C3CC3)nc2n2c(-c3cc(C4(O)CCOCC4)ccc3F)nnc12 [Example 95] | 0.005 |
| Cc1nc2ccc(C(F)(F)F)nc2n2c(-c3cc(C4(O)CCOCC4)ccc3Cl)nnc12 [Example 96] | 0.043 |
| Cc1ccc(C2(O)CCOCC2)cc1-c1nnc2c(C)nc3ccc(C4CC4)nc3n12 [Example 103] | 0.003 |

Results, then the compound that gave them:

| IC50 [µM] | Structure (SMILES) |
| --- | --- |
| 0.011 | Cc1nc2ccc(C3CC3)nc2n2c(-c3cc(OC4COCCC4O)ccc3F)nnc12 (single isomer, unassigned) [Example 108a] |
| 0.467 | Cc1nc2ccc(C(F)(F)F)nc2n2c(-c3cc(OC4CCOCC4O)ccc3F)nnc12 (single isomer, unassigned) [Example 110d] |
| 0.199 | Cc1nc2ccc(C(F)(F)F)nc2n2c(-c3cc(C4(O)CCOCC4)ccc3F)nnc12 [Example 96a] |
| 0.087 | Cc1ccc(C2(O)CCOCC2)cc1-c1nnc2c(C)nc3ccc(C(F)(F)F)nc3n12 [Example 96b] |
| 0.622 | Cc1nc2ccc(C(F)(F)F)nc2n2c(-c3cc(C(C)(C)O)ccc3F)nnc12 [Example 103c] |

Source: patent publication US20140045856A1, “4-Methyl-2,3,5,9,9b-pentaaza-cyclopenta[a]naphthalenes” (BOEHRINGER INGELHEIM INTERNATIONAL GMBH, priority 2012, published 2014)
